Test results as given in ChEMBL document CHEMBL1201862, “PubChem BioAssay data set” (2004).
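Each compound was tested at five concentrations against cells in 96-well plates for 48 hours. GI50 = concentration required for 50% inhibition of growth.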 Calls of active or inactive are those of the source. Rule as the data show it: active = GI50 up to about 1.1 µM and inactive = higher.

Legend:
Assay in all cases: NCI tumour cell line growth inhibition, 48 h
ACHN = test system: ACHN
RXF 393 = test system: RXF 393
NCI/ADR-RES = test system: NCI/ADR-RES
SN12C = test system: SN12C
CCRF-CEM = test system: CCRF-CEM
Malme-3M = test system: Malme-3M
HT-29 = test system: HT-29
NCI-H226 = test system: NCI-H226
HL-60 = test system: HL-60
OVCAR-4 = test system: OVCAR-4
OVCAR-3 = test system: OVCAR-3
EKVX = test system: EKVX
HCT-116 = test system: HCT-116
MDA-MB-231 = test system: MDA-MB-231
UO-31 = test system: UO-31
TK-10 = test system: TK-10
MDA-MB-435 = test system: MDA-MB-435
IGROV-1 = test system: IGROV-1
PC-3 = test system: PC-3

Measured: GI50

O=c1[nH]n(Cc2ccccc2Cl)c2ccc([N+](=O)[O-])cc12
inactive: ACHN 33.3 µM | RXF 393 23.3 µM | NCI/ADR-RES 28.1 µM | SN12C 54 µM | CCRF-CEM 45.2 µM | Malme-3M 47.3 µM | HT-29 72.9 µM | NCI-H226 86.9 µM | HL-60 31.6 µM | OVCAR-4 78.9 µM | OVCAR-3 35.9 µM | EKVX 58.7 µM | HCT-116 41.1 µM | MDA-MB-231 39.4 µM | UO-31 34.3 µM | TK-10 55.6 µM | MDA-MB-435 3.98 µM | IGROV-1 61.9 µM

COC(=O)C(Cc1cc(OC)c(OC)c(OC)c1)c1ccc(OC)cc1 (configuration not stated)
inactive: ACHN > 100 µM | RXF 393 > 100 µM | SN12C > 100 µM | CCRF-CEM 88.5 µM | Malme-3M > 100 µM | HT-29 > 100 µM | NCI-H226 > 100 µM | HL-60 95.5 µM | OVCAR-4 > 100 µM | OVCAR-3 95.7 µM | EKVX > 100 µM | HCT-116 > 100 µM | UO-31 > 100 µM | TK-10 > 100 µM | IGROV-1 > 100 µM

CC(C)(C)C[P+](C)(C)c1ccccc1
inactive: ACHN > 100 µM | RXF 393 > 100 µM | SN12C > 100 µM | CCRF-CEM > 100 µM | Malme-3M > 100 µM | HT-29 > 100 µM | NCI-H226 > 100 µM | HL-60 67.1 µM | OVCAR-4 > 100 µM | OVCAR-3 91.2 µM | EKVX > 100 µM | HCT-116 > 100 µM | UO-31 > 100 µM | TK-10 > 100 µM | IGROV-1 > 100 µM

N#CC(C(=O)CCCC(=O)Nc1ccc(Cl)cc1Cl)c1ccccc1 (configuration not stated)
inactive: ACHN > 100 µM | RXF 393 > 100 µM | SN12C > 100 µM | CCRF-CEM > 100 µM | Malme-3M > 100 µM | HT-29 > 100 µM | NCI-H226 > 100 µM | HL-60 > 100 µM | OVCAR-4 > 100 µM | OVCAR-3 > 100 µM | EKVX > 100 µM | HCT-116 > 100 µM | UO-31 > 100 µM | TK-10 > 100 µM | IGROV-1 > 100 µM

CCOC(OC1=C(C#N)CCCC1)C(CC)[Se]c1ccccc1 (configuration not stated)
inactive: ACHN 30.1 µM | RXF 393 15 µM | SN12C 16.3 µM | CCRF-CEM 15.7 µM | Malme-3M 31 µM | HT-29 29 µM | NCI-H226 19.4 µM | HL-60 10.1 µM | OVCAR-4 19.3 µM | OVCAR-3 19.9 µM | EKVX 24.4 µM | HCT-116 14.5 µM | UO-31 37.8 µM | TK-10 > 100 µM | IGROV-1 20.7 µM

CC(C)(C)C1CC[C@H](O)[C@H]([C@H](O)CC2CC(=O)N(c3ccccc3)C(=O)C2)C1 (some centres not stated)
inactive: ACHN > 100 µM | RXF 393 > 100 µM | NCI/ADR-RES > 100 µM | SN12C > 100 µM | CCRF-CEM > 100 µM | Malme-3M > 100 µM | HT-29 > 100 µM | NCI-H226 > 100 µM | HL-60 > 100 µM | OVCAR-4 > 100 µM | OVCAR-3 > 100 µM | EKVX > 100 µM | HCT-116 > 100 µM | MDA-MB-231 > 100 µM | PC-3 > 100 µM | UO-31 > 100 µM | TK-10 > 100 µM | MDA-MB-435 > 100 µM | IGROV-1 > 100 µM

COc1ccc2[nH]cc(CCNC(=O)[C@H](Cc3ccc(O)cc3)NC(=O)[C@@H](NCC(F)(F)F)C(C)C)c2c1
inactive: ACHN > 100 µM | RXF 393 > 100 µM | NCI/ADR-RES > 100 µM | SN12C > 100 µM | CCRF-CEM 39.7 µM | Malme-3M > 100 µM | HT-29 52.5 µM | NCI-H226 41.8 µM | HL-60 41.3 µM | OVCAR-4 40 µM | OVCAR-3 20.1 µM | EKVX 99.8 µM | HCT-116 95.5 µM | MDA-MB-231 > 100 µM | PC-3 > 100 µM | UO-31 > 100 µM | TK-10 > 100 µM | MDA-MB-435 25.2 µM | IGROV-1 97.7 µM

CCOC(OC1=C(C#N)CCC1)C(C)[Se]c1ccccc1 (configuration not stated)
inactive: ACHN 32.1 µM | RXF 393 18 µM | SN12C 14.7 µM | CCRF-CEM > 100 µM | Malme-3M 12.7 µM | HT-29 42.2 µM | NCI-H226 19.7 µM | HL-60 21 µM | OVCAR-4 14.9 µM | OVCAR-3 18.1 µM | EKVX 30.5 µM | HCT-116 18.8 µM | UO-31 26.5 µM | TK-10 > 100 µM | IGROV-1 25.8 µM

Cc1sc2nc(-c3cc([N+](=O)[O-])c(Cl)cc3Cl)c(/C=N/NC(=N)N)n2c1C
inactive: ACHN 5.22 µM | RXF 393 5.09 µM | NCI/ADR-RES 31.7 µM | SN12C 5.65 µM | CCRF-CEM 4.31 µM | Malme-3M 13.8 µM | HT-29 3.25 µM | NCI-H226 26.8 µM | OVCAR-4 2.36 µM | OVCAR-3 4.06 µM | EKVX 19.8 µM | HCT-116 4.15 µM | MDA-MB-231 6.61 µM | PC-3 5.69 µM | UO-31 11.4 µM | TK-10 13.9 µM | MDA-MB-435 3.72 µM | IGROV-1 2.34 µM

COc1cc(O)c2c(=O)cc(-c3ccc(O)cc3O)oc2c1CC=C(C)C [ARTOCARPETIN A]
inactive: ACHN 16.3 µM | RXF 393 6.3 µM | NCI/ADR-RES 27 µM | SN12C 16.4 µM | CCRF-CEM 15.4 µM | Malme-3M 16.3 µM | HT-29 4.35 µM | NCI-H226 12.2 µM | HL-60 10.4 µM | OVCAR-4 13.1 µM | EKVX 26.1 µM | HCT-116 18.1 µM | MDA-MB-231 22.1 µM | PC-3 12.9 µM | UO-31 17.9 µM | TK-10 27.7 µM | MDA-MB-435 18.7 µM | IGROV-1 20.3 µM

CC(C)(C)OC(=O)N[C@H]1CC(=O)c2ccccc2N(CC(=O)O)C1=O
inactive: ACHN > 100 µM | RXF 393 > 100 µM | SN12C > 100 µM | CCRF-CEM > 100 µM | Malme-3M 19.9 µM | HT-29 > 100 µM | NCI-H226 > 100 µM | HL-60 > 100 µM | OVCAR-4 > 100 µM | OVCAR-3 > 100 µM | EKVX > 100 µM | HCT-116 26.5 µM | UO-31 > 100 µM | TK-10 > 100 µM | IGROV-1 > 100 µM
